pKi: −log10 of the molar value.
What was measured:
[1] = biological target: Coagulation factor X (Homo sapiens, UniProt P00742); test: Inhibition of Coagulation factor Xa
[2] = biological target: Prothrombin (Homo sapiens, UniProt P00734); test: Inhibition of Coagulation factor IIa
[3] = biological target: Serine protease 1 (Homo sapiens, UniProt P07477); test: In vitro inhibitory potency against Trypsin
[4] = test system: Rattus norvegicus; test: Tested for maximal effective dose in ferrous-chloride induced arterial thrombosis by intravenous maintenance infusion; format: functional
[5] = Selectivity ratio as Ki of Activated protein C / Ki of factor Xa
[6] = species: Homo sapiens; test: Concentration at which compound inhibited coagulation of human plasma in vitro, doubling activated partial thromboplastin time (APTT); format: functional, cell-free
[7] = Selectivity ratio as Ki of Serine proteases tissue plasminogen activator / Ki of factor Xa
[8] = Selectivity ratio as Ki of Trypsin / Ki of factor Xa
[9] = species: Rattus norvegicus; test: Tested for maximal effective dose in ferrous-chloride induced arterial thrombosis by bolus infusion; format: functional; conditions: read-out: MED
[10] = biological target: Thrombin and coagulation factor X (Homo sapiens) (UniProt P00734+P00742); test: Selectivity ratio as Ki of factor IIA / Ki of factor Xa; format: protein assay
[11] = species: Rattus norvegicus; test: Concentration at which compound inhibited coagulation of rat plasma in vitro, doubling activated partial thromboplastin time (APTT); format: functional, cell-free

Coagulation factor X, sequence (P00742 41-179 limits assumed): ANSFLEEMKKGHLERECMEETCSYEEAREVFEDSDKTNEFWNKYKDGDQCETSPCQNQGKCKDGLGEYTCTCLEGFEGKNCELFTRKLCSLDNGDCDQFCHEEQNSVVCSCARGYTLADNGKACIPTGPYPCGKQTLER
Coagulation factor X, sequence (P00742 235-488 limits assumed): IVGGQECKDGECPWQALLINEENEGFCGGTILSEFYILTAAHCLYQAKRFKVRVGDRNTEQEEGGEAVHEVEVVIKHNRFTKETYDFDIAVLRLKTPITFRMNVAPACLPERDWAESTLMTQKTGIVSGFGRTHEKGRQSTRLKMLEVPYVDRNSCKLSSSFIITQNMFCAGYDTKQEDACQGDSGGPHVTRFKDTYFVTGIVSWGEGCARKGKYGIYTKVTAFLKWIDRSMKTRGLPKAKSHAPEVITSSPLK
Serine protease 1, sequence (P07477 whole entry, the tested form may be a part): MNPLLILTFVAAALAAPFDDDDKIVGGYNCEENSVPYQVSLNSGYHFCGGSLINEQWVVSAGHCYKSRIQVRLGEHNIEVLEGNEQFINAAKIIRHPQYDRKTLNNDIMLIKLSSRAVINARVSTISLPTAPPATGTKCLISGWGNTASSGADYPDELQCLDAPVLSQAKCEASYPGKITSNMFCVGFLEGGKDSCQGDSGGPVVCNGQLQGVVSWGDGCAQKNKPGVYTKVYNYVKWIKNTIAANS
Thrombin and coagulation factor X (Homo sapiens), sequence (P00742 whole entry, looked up, other chains not shown): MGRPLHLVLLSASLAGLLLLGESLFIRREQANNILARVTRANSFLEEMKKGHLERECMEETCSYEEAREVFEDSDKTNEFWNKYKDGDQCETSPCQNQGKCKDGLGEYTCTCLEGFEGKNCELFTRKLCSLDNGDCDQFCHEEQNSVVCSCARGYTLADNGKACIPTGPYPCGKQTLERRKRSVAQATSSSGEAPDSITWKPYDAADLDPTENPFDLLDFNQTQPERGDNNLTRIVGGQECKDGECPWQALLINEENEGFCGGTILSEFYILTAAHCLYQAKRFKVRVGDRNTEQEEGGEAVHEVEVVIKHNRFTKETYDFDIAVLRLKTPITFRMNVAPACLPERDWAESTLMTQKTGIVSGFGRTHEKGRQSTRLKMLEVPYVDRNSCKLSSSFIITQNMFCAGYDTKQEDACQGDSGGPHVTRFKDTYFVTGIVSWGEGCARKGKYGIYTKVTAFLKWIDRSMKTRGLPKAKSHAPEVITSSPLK

Structure (SMILES) | pKi [1] | pKi [2] | pKi [3] | further results
COC(=O)[C@H](Cc1cccc(C(=N)N)c1)[C@@H](C)NC(=O)c1ccc(-c2c[nH]cn2)cc1 | 8.52 | < 5.40 | 6.77 | –
COC(=O)[C@H](Cc1cccc(C(=N)N)c1)[C@@H](C)NC(=O)c1ccc(-c2cccnc2)cc1 | 8.10 | 5.40 | 6.43 | –
COC(=O)[C@H](Cc1cccc(C(=N)N)c1)[C@@H](C)NC(=O)c1ccc(-c2ccncc2)cc1 | 9.30 | < 5.40 | 7.12 | –
COC(=O)[C@H](Cc1cccc(C(=N)N)c1)[C@@H](C)NC(=O)c1ccc(-c2ncc[nH]2)cc1 | 7.34 | < 5.40 | 6.31 | –
COC(=O)[C@H](Cc1cccc(C(=N)N)c1)[C@@H](C)NC(=O)c1ccc(-c2cccc[n+]2C)cc1 | 8.92 | < 5.40 | 7.44 | –
COC(=O)[C@H](Cc1cccc(C(=N)N)c1)[C@@H](C)NC(=O)c1ccc(-c2ccc[n+]([O-])c2)cc1 | 8.70 | < 5.40 | 6.89 | –
COC(=O)[C@H](Cc1cccc(C(=N)N)c1)[C@@H](C)NC(=O)c1ccc(-c2cc[n+](C)cc2)cc1 | 8.57 | < 5.40 | 6.77 | –
COC(=O)[C@H](Cc1cccc(C(=N)N)c1)[C@@H](C)NC(=O)c1ccc(-c2ccc[n+](C)c2)cc1 | 9.10 | < 5.40 | 7.28 | –
COC(=O)[C@H](Cc1cccc(C(=N)N)c1)[C@@H](C)NC(=O)c1ccc(-c2cccc[n+]2[O-])cc1 | 9.24 | < 5.40 | 7.44 | –
COC(=O)[C@H](Cc1cccc(C(=N)N)c1)[C@@H](C)NC(=O)c1ccc(-n2ccnc2)cc1 | 8.22 | < 5.40 | < 5.54 | –
COC(=O)[C@H](Cc1cccc(C(=N)N)c1)[C@@H](C)NC(=O)c1ccc(-c2cc[n+]([O-])cc2)cc1 [OTAMIXABAN] | – | < 5.40 | 6.52 | MED [4]: 5 µg/min/kg; Ratio [5]: > 10000; Concentration [6]: 0.41 µM; Ratio [7]: > 10000; Ratio [8]: 750; minimal effective dose [9]: 0.05 mg/kg; Ratio [10]: > 10000; Concentration [11]: 0.8 µM
COC(=O)[C@H](Cc1cccc(C(=N)N)c1)[C@@H](C)NC(=O)c1ccc(-c2ccccc2)cc1 | – | 5.49 | – | Ratio [5]: > 1000; Concentration [6]: 3.9 µM; Ratio [7]: > 1000; Ratio [8]: 13; Ratio [10]: 610; Concentration [11]: 5.1 µM
COC(=O)[C@H](Cc1cccc(C(=N)N)c1)[C@@H](C)NC(=O)c1ccc(-c2ccccn2)cc1 | 9.05 | 5.55 | 7.29 | –

— ChEMBL document CHEMBL1135155, “Optimization of the beta-aminoester class of factor Xa inhibitors. Part 2: Identification of FXV673 as a potent and selective inhibitor with excellent In vivo anticoagulant activity” (Bioorg Med Chem Lett, 2002)
